BindingDB's records for doi:10.1016/j.bmcl.2020.127669 (Janssen Research & Development, 2021)

Molecular target: 5-hydroxytryptamine receptor 2B (Homo sapiens, UniProt P41595)
Assay: Displacement of […] from human 5-HT2B receptor by competitive radioligand binding assay

5-hydroxytryptamine receptor 2B, sequence (P41595 whole entry): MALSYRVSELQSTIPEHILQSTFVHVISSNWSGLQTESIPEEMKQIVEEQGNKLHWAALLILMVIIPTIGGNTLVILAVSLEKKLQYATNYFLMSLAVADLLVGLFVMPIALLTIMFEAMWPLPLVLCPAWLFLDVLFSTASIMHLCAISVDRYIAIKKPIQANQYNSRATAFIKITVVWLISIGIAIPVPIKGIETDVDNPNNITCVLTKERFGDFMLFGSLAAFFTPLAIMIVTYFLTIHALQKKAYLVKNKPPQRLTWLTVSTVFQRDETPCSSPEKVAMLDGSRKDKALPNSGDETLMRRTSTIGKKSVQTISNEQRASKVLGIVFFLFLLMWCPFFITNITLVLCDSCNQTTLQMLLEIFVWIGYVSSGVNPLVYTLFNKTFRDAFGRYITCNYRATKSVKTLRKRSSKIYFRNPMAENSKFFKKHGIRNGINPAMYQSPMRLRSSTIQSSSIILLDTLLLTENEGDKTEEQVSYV

For CC(C)n1nc2c(c1-c1ccc(F)cc1)CCNCC2, which Ki is on record?
The Ki was 25 nM.
